Measured values from patent US20240067702A1, “LACTAM-MODIFIED P[…]” (DONGBAO PURPLE STAR (HANGZHOU) BIOPHARMACEUTICAL CO., LTD., priority 2020, published 2024).
*1 amine or outer side, *2 acyl side, *3 side chain or, on linkers, in order; H or OH if unused. Where a SMILES comes first, the peptide text is derived from it. Bridges are numbered along the chain shown (N, C = ends). Side-chain parts run from the residue outwards. [ ]: non-standard residue; d: D form. The star is where a group is joined. C20 diacid = O=C(O)CCCCCCCCCCCCCCCCCCC(=O)*; C18 diacid = O=C(O)CCCCCCCCCCCCCCCCC(=O)*; γGlu = O=C(O)[C@H](CCC(=O)[*:2])N[*:1]; AEEA = NCCOCCOCC(=O)O; Aib = CC(C)(N)C(=O)O

What was measured:
GLP-1R = biological target: T1, GLP-1R (Homo sapiens, UniProt P43220); assay: GLP-1R agonist activity test in vitro (cAMP assay); type: cell-based; conditions: HEK293 host cell
T1 construct: host or cells: HEK293
T1 sequence (P43220 24-463): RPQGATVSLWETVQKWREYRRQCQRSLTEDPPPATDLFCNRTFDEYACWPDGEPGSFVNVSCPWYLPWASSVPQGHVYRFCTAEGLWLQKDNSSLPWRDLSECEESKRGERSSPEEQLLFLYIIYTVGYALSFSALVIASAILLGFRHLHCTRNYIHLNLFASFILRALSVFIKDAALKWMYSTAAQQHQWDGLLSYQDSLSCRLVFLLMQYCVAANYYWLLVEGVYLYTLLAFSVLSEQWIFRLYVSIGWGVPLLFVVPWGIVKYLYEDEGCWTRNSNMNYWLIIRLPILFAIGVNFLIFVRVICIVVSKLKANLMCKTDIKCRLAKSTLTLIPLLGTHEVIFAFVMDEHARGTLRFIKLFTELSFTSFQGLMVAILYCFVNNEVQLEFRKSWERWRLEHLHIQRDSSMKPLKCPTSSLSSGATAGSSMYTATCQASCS
Method: (§1) The cell strains were constructed by Shanghai WuXi AppTec.
(§2) The test compound was serially diluted 4-fold with 10 points. The initial concentration was 30 μM, and the dilution was completed with Bravo.
(§3) 1) 100 nL of the compound was transferred to OptiPlate-384 plate using Echo.
(§4) 7) The GLP-1R/GIPR cell concentration was diluted to 2.0*10^5/mL with the experimental buffer.
(§5) 8) […] of the diluted cell suspension was transferred into the OptiPlate-384 plate.
(§6) 9) The diluted cell suspension was incubated at room temperature for 30 minutes.
(§7) 2) 10 μL of cAMP detection reagent was added.
(§8) 3) The OptiPlate-384 plate was covered with TopSeal-A film and incubated at room temperature for 60 minutes.
(§9) TopSeal-A was removed and read in EnVision.

GIPR = biological target: T2, GIPR (Homo sapiens, UniProt P48546); assay: GIPR agonist activity test in vitro (cAMP assay); type: cell-based; conditions: CHO host cell
T2 construct: host or cells: CHO
T2 sequence (P48546 22-466): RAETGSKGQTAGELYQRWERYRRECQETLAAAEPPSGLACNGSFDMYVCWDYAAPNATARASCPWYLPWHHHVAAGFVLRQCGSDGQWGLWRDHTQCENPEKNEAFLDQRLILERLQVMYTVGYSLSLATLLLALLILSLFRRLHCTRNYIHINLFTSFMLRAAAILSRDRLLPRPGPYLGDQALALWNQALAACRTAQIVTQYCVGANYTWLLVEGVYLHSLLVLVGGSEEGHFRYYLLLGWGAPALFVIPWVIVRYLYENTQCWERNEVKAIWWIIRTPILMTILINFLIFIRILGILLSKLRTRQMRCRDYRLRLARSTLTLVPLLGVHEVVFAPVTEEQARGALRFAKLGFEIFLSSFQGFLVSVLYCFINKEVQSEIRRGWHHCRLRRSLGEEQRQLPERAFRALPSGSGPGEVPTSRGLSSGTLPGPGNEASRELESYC
Method: as §1, §2, §3, §4, §5, §6, §7, §8, §9

[1] = GLP-IR Agonist Activity EC50 (−) 1% HSA, without 1% HSA
[2] = GIPR Agonist Activity EC50 (−) 1% HSA, without 1% HSA

Structure (SMILES) | EC50 (GLP-1R; [1]) [nM] | EC50 (GIPR; [2]) [nM] | EC50 (GLP-1R; GLP-IR Agonist Activity EC50 (+) 1% HSA, with 1% HSA) [nM] | EC50 (GIPR; GIPR Agonist Activity EC50 (+) 1% HSA, with 1% HSA) [nM]
CC[C@H](C)[C@H](NC(=O)[C@H](CC(C)C)NC(=O)[C@H](Cc1c[nH]c2ccccc12)NC(=O)[C@@H]1CCC(=O)NCCCC[C@H](NC(=O)[C@H](CCC(N)=O)NC(=O)[C@H](C)NC(=O)[C@H](CCCCNC(=O)COCCOCCNC(=O)COCCOCCNC(=O)CC[C@H](NC(=O)CC[C@H](NC(=O)CCCCCCCCCCCCCCCCC(=O)O)C(=O)O)C(=O)O)NC(=O)[C@H](CCCCN)NC(=O)[C@H](CC(=O)O)NC(=O)[C@H](CC(C)C)NC(=O)C(C)(C)NC(=O)[C@@H](NC(=O)[C@H](CO)NC(=O)[C@H](Cc2ccc(O)cc2)NC(=O)[C@H](CC(=O)O)NC(=O)[C@H](CO)NC(=O)[C@@H](NC(=O)[C@H](Cc2ccccc2)NC(=O)[C@@H](NC(=O)CNC(=O)[C@H](CCC(=O)O)NC(=O)C(C)(C)NC(=O)[C@@H](N)Cc2ccc(O)cc2)[C@@H](C)O)[C@@H](C)O)[C@@H](C)CC)C(=O)N[C@@H](C)C(=O)N[C@@H](Cc2ccccc2)C(=O)N[C@@H](C(C)C)C(=O)N1)C(=O)N[C@@H](C)C(=O)NCC(=O)NCC(=O)N1CCC[C@H]1C(=O)N[C@@H](CO)C(=O)N[C@@H](CO)C(=O)NCC(=O)N[C@@H](C)C(=O)N1CCC[C@H]1C(=O)N1CCC[C@H]1C(=O)N1CCC[C@H]1C(=O)N[C@@H](CO)C(N)=O [WX-003] (H-Y[Aib]EGTFTSDYSI[Aib]LDKK([AEEA-AEEA-γGlu-γGlu-C18 diacid])AQKAFVEWLIAGGPSSGAPPPS-NH2; lactam 20-24) | 0.09 | 0.3 | – | –
CC[C@H](C)[C@H](NC(=O)[C@H](CC(C)C)NC(=O)[C@H](Cc1c[nH]c2ccccc12)NC(=O)[C@H](CCCCNC(=O)COCCOCCNC(=O)COCCOCCNC(=O)CC[C@H](NC(=O)CCCCCCCCCCCCCCCCCCC(=O)O)C(=O)O)NC(=O)[C@@H](NC(=O)[C@H](Cc1ccccc1)NC(=O)[C@H](C)NC(=O)[C@@H]1CCCCNC(=O)CC[C@H](NC(=O)[C@H](CCCCN)NC(=O)[C@H](CC(=O)O)NC(=O)[C@H](CC(C)C)NC(=O)C(C)(C)NC(=O)[C@@H](NC(=O)[C@H](CO)NC(=O)[C@H](Cc2ccc(O)cc2)NC(=O)[C@H](CC(=O)O)NC(=O)[C@H](CO)NC(=O)[C@@H](NC(=O)[C@H](Cc2ccccc2)NC(=O)[C@@H](NC(=O)CNC(=O)[C@H](CCC(=O)O)NC(=O)C(C)(C)NC(=O)[C@@H](N)Cc2ccc(O)cc2)[C@@H](C)O)[C@@H](C)O)[C@@H](C)CC)C(=O)N[C@@H](C)C(=O)N[C@@H](CCC(N)=O)C(=O)N1)C(C)C)C(=O)N[C@@H](C)C(=O)NCC(=O)NCC(=O)N1CCC[C@H]1C(=O)N[C@@H](CO)C(=O)N[C@@H](CO)C(=O)NCC(=O)N[C@@H](C)C(=O)N1CCC[C@H]1C(=O)N1CCC[C@H]1C(=O)N1CCC[C@H]1C(=O)N[C@@H](CO)C(N)=O [WX-008] (H-Y[Aib]EGTFTSDYSI[Aib]LDKEAQKAFVK([AEEA-AEEA-γGlu-C20 diacid])WLIAGGPSSGAPPPS-NH2; lactam 17-20) | 0.08 | 0.32 | – | –
CC[C@H](C)[C@H](NC(=O)[C@H](CO)NC(=O)[C@H](Cc1ccc(O)cc1)NC(=O)[C@H](CC(=O)O)NC(=O)[C@H](CO)NC(=O)[C@@H](NC(=O)[C@H](Cc1ccccc1)NC(=O)[C@@H](NC(=O)CNC(=O)[C@H](CCC(=O)O)NC(=O)C(C)(C)NC(=O)[C@@H](N)Cc1ccc(O)cc1)[C@@H](C)O)[C@@H](C)O)C(=O)NC(C)(C)C(=O)N[C@@H](CC(C)C)C(=O)N[C@@H](CC(=O)O)C(=O)N[C@@H](CCCCN)C(=O)N[C@@H](CCCCNC(=O)COCCOCCNC(=O)COCCOCCNC(=O)CC[C@H](NC(=O)CCCCCCCCCCCCCCCCCCC(=O)O)C(=O)O)C(=O)N[C@@H](C)C(=O)N[C@@H](CCC(N)=O)C(=O)N[C@H]1CCCCNC(=O)CC[C@@H](C(=O)N[C@@H](Cc2c[nH]c3ccccc23)C(=O)N[C@@H](CC(C)C)C(=O)N[C@@H](CC(C)C)C(=O)N[C@@H](C)C(=O)NCC(=O)NCC(=O)N2CCC[C@H]2C(=O)N[C@@H](CO)C(=O)N[C@@H](CO)C(=O)NCC(=O)N[C@@H](C)C(=O)N2CCC[C@H]2C(=O)N2CCC[C@H]2C(=O)N2CCC[C@H]2C(=O)N[C@@H](CO)C(N)=O)NC(=O)[C@H](C(C)C)NC(=O)[C@H](Cc2ccccc2)NC(=O)[C@H](C)NC1=O [WX-007] (H-Y[Aib]EGTFTSDYSI[Aib]LDKK([AEEA-AEEA-γGlu-C20 diacid])AQKAFVEWLLAGGPSSGAPPPS-NH2; lactam 20-24) | 0.14 | 0.13 | – | –
CC[C@H](C)[C@H](NC(=O)[C@@H]1CCCCNC(=O)CC[C@H](NC(=O)[C@@H](NC(=O)[C@H](CO)NC(=O)[C@H](Cc2ccc(O)cc2)NC(=O)[C@H](CC(=O)O)NC(=O)[C@H](CO)NC(=O)[C@@H](NC(=O)[C@H](Cc2ccccc2)NC(=O)[C@@H](NC(=O)CNC(=O)[C@H](CCC(=O)O)NC(=O)C(C)(C)NC(=O)[C@@H](N)Cc2ccc(O)cc2)[C@@H](C)O)[C@@H](C)O)[C@@H](C)CC)C(=O)N[C@@H](CC(C)C)C(=O)N[C@@H](CC(=O)O)C(=O)N1)C(=O)N[C@@H](C)C(=O)N[C@@H](CCC(N)=O)C(=O)N[C@@H](CCCCNC(=O)COCCOCCNC(=O)COCCOCCNC(=O)CC[C@H](NC(=O)CCCCCCCCCCCCCCCCCCC(=O)O)C(=O)O)C(=O)N[C@@H](C)C(=O)N[C@@H](Cc1ccccc1)C(=O)N[C@H](C(=O)N[C@@H](CCC(N)=O)C(=O)N[C@@H](Cc1c[nH]c2ccccc12)C(=O)N[C@@H](CC(C)C)C(=O)N[C@H](C(=O)N[C@@H](C)C(=O)NCC(=O)NCC(=O)N1CCC[C@H]1C(=O)N[C@@H](CO)C(=O)N[C@@H](CO)C(=O)NCC(=O)N[C@@H](C)C(=O)N1CCC[C@H]1C(=O)N1CCC[C@H]1C(=O)N1CCC[C@H]1C(=O)N[C@@H](CO)C(N)=O)[C@@H](C)CC)C(C)C [WX-010] (H-Y[Aib]EGTFTSDYSIELDKIAQK([AEEA-AEEA-γGlu-C20 diacid])AFVQWLIAGGPSSGAPPPS-NH2; lactam 13-16) | 0.0345 | 11.9 | 34 | 443
